These results are taken from patent US9273057B2 (Bristol-Myers Squibb Company, priority 2012, dated 2016).

The test deals with CK2A1 (CK2α/β) (Homo sapiens, UniProt P68400). In words: CK2 kinase assay, CK2A1 (CK2α/β). It counts as biochemical. The note with it: Table A; read-out: CK2A1 (CK2α/β) (IC50).
Chain of CK2A1 (CK2α/β) (P68400 whole entry, species assumed): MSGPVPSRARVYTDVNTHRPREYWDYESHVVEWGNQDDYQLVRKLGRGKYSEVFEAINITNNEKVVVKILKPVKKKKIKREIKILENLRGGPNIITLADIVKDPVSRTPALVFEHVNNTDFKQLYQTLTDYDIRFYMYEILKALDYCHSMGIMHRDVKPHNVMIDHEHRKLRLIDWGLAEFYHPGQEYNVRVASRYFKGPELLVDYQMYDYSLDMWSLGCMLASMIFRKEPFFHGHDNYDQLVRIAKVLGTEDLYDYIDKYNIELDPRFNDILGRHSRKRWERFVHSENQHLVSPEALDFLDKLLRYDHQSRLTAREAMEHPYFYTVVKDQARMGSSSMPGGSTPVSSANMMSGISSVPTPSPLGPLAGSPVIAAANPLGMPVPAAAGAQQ
Chain of CK2A1 (CK2α/β) (P67870 whole entry partner, species assumed): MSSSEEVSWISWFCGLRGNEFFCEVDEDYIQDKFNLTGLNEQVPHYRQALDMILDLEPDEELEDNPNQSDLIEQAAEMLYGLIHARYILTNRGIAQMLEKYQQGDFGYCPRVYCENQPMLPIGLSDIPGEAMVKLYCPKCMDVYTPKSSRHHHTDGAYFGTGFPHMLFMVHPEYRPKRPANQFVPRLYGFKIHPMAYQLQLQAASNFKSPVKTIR
On to `CCNc1nc(Nc2cc(C#N)cc(N3CC[C@@H](NC[C@H](C)O)[C@H](O)C3)c2Cl)nn2c(C#N)cnc12` [Example 377, 2-((2-chloro-5-cyano-3-((3R,4R)-3-hydroxy-4-(((S)-2-hydroxypropyl)amino)piperidin-1-yl)phenyl)amino)-4-(ethylamino)imidazo[2,1-f][1,2,4]triazine-7-carbonitrile], for which the IC50 worked out at 0.61 nM.
The figure for `Cn1cnc2cc(Nc3nc(NC4CC4)c4ncc(C#N)n4n3)ccc21` [Example 3, 4-(cyclopropylamino)-2-((1-methyl-1H-benzimidazol-5-yl)amino)imidazo[2,1-f][1,2,4]triazine-7-carbonitrile] is 0.42 nM; for `CC(=O)N1CC(N2CCN(c3cc(OC(F)F)cc(Nc4nc(NC5CC5)c5ncc(C#N)n5n4)c3Cl)CC2)C1` [Example 559, 2-((3-(4-(1-acetylazetidin-3-yl)piperazin-1-yl)-2-chloro-5-(difluoromethoxy)phenyl)amino)-4-(cyclopropylamino)imidazo[2,1-f][1,2,4]triazine-7-carbonitrile] it is 2.37 nM.
In the case of `CCOC(=O)C1CCN(c2cc(C(F)F)cc(Nc3nc(NC4CC4)c4ncc(C#N)n4n3)c2Cl)CC1` [Example 544, ethyl 1-(2-chloro-3-((7-cyano-4-(cyclopropylamino)imidazo[2,1-f][1,2,4]triazin-2-yl)amino)-5-(difluoromethyl)phenyl)piperidine-4-carboxylate] it was 28.2 nM.
The figure for `CC(C)(F)C(=O)N1CC(N2CCN(c3cc(C#N)cc(Nc4nc(NC5CC5)c5ncc(C#N)n5n4)c3Cl)CC2)C1` [Example 499, 2-[(2-chloro-5-cyano-3-{4-[1-(2-fluoro-2-methylpropanoyl)azetidin-3-yl]piperazin-1-yl}phenyl)amino]-4-(cyclopropylamino)imidazo[2,1-f][1,2,4]triazine-7-carbonitrile] is 3.93 nM.
As to `N#Cc1cc(Nc2nc(NC3CC3)c3ncc(C#N)n3n2)c(Cl)c(C2(O)CCNC2)c1` (stereo not shown) [Example 651, 2-((2-chloro-5-cyano-3-(3-hydroxypyrrolidin-3-yl)phenyl)amino)-4-(cyclopropylamino)imidazo[2,1-f][1,2,4]triazine-7-carbonitrile], the IC50 stood at 1.51 nM.
For `COCC(=O)N1CC(N2CCN(c3cc(C#N)cc(Nc4nc(NC5CC5)c5ncc(C#N)n5n4)c3Cl)CC2)C1` [Example 497, 2-[(2-chloro-5-cyano-3-{4-[1-(2-methoxyacetyl)azetidin-3-yl]piperazin-1-yl}phenyl)amino]-4-(cyclopropylamino)imidazo[2,1-f][1,2,4]triazine-7-carbonitrile], the IC50 is 0.82 nM.
Turning to `COC[C@@H](O)CN1CCN(c2cc(C#N)cc(Nc3nc(NC4CC4)c4ncc(C#N)n4n3)c2Cl)CC1` [Example 602, 2-[(2-chloro-5-cyano-3-{4-[(2S)-2-hydroxy-3-methoxypropyl]piperazin-1-yl}phenyl)amino]-4-(cyclopropylamino)imidazo [2,1-f][1,2,4]triazine-7-carbonitrile], the IC50 was 4.34 nM.
For the compound `COC(=O)N[C@H]1CCN(c2cc(C#N)cc(Nc3nc(NC4CC4)c4ncc(C#N)n4n3)c2Cl)C[C@@H]1N(C)CC(C)(C)O` [Example 765, methyl N-[(3S,4S)-1-(2-chloro-5-cyano-3-{[7-cyano-4-(cyclopropylamino)imidazo [2,1-f][1,2,4]triazin-2-yl]amino}phenyl)-3-[(2-hydroxy-2-methylpropyl)(methyl)amino]piperidin-4-yl] carbamate], the IC50 was determined as 23.2 nM.
As to `N#Cc1cc(Nc2nc(NC3CC3)c3ncc(C#N)n3n2)c(Cl)c(N2CCC[C@@H](N)C2)c1` [Example 40, (R)-2-(3-(3-aminopiperidin-1-yl)-2-chloro-5-cyanophenylamino)-4-(cyclopropylamino)imidazo [1,2-f][1,2,4]triazine-7-carbonitrile], the IC50 was 2.49 nM.
